According to US20090136968A1, “Novel in vitro methods for studying receptors recognizing volatile compounds” (Chemcom S. A., priority 2005, published 2009):

Key:
Format in all cases: cell-based
[1] = tested on: HEK 293T wt; experiment: CCBSA microplate calcium flux on HEK 293T wild type cells (specificity control)
Protocol: A solution of BP including SA, OBP and/or olfactory mucus (see concentration in the text) was incubated in the presence of odorant in a sealed flask for 16 hours at 4° C. (FIG. 3A). Such incubated-BP solution was then used as tested complex on olfactory receptor-expressing cells. Prior to incubation with such complex, cells were incubated for 1 hour with 4 μM Fluo4-AM (Molecular Probe) in the presence of 1 mM probenecid, and then rinsed twice with Fluo4-AM free HBSS buffer. After injection of odorant-BP complex on OR expressing cells, calcium flux was followed by measuring fluorescence at 520 nm ([…]) on FDSS, a plate reader from Hamamatsu Photonics K.K. (Japan) at 25° C.
For this novel assay, mOR-I7 activation was assessed by octanal. A constant volume of olfactory mucus was incubated in the presence of increasing amount of octanal ranging from 0 to 16 μl of a solution of 1M octanal. […] Calcium flux was followed with Fluo4 on FDSS, a plate reader from Hamamatsu Photonics K.K. (Japan).
However this fraction 4 contained two major proteins, bOBP and BSA. […] Calcium-flux was followed on a plate reader (Hamamatsu Photonics K.K., Japan) with fluo4 as fluorescent dye (FIG. 6 A to F). […] Such phenomenon is usually observed in such fluorescence assay when increasing ligand concentrations are injected.

[2] = molecular target: T1, mOR-I7 (Mus musculus, UniProt Q9QWU6); experiment: CCBSA single cell calcium imaging (Fluo4) on HEK 293T overexpressing mOR-I7; settings: bovine olfactory mucus incubated with 16 μl of 1M octanal, 16 hours 4° C.; 20 cells
T1 construct: expressed in transfected cells; host or cells: HEK 293T
T1 sequence (Q9QWU6 1-327): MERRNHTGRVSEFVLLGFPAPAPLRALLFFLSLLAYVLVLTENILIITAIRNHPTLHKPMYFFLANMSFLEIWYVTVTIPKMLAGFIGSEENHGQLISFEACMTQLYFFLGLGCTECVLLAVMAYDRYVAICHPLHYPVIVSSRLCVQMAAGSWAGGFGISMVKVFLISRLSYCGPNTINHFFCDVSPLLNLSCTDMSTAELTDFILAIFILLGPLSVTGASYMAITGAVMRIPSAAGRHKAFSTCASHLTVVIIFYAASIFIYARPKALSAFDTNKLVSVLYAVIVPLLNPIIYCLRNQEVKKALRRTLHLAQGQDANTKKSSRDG
Protocol: FIG. 3: Development of a novel olfactory functional assay. (A) Scheme of the novel assay according to the present invention, CCBSA. See details in the text. (B) Application of CCBSA on a microplate format fluorescent cell-based assay. Increasing volume of octanal were incubated in CCBSA, and applied on HEK 293T cell line overexpressing or not mOR-I7. Calcium flux was followed with fluo4 as calcium tracer. (C) Application of CCBSA on single cell calcium imaging assay. Octanal was incubated in CCBSA and applied on HEK 293T overexpressing mOR-I7. Upper panel depicts kinetics of calcium flux followed with fluo4 as calcium tracer. Octanal-incubated bovine olfactory mucus was applied at 50 s and ATP as positive control was applied at 310 s. Forty X objective was used for this experiment. Middle panel show kinetics of 20 individual cells taken off the field represented in the upper panel. Finally, a representation of the average of the 20 traces is given in the lower panel.
To further validate this assay, single cell calcium imaging assays following the same approach were performed (FIG. 3C). Bovine olfactory mucus was incubated in the presence of 16 μl of a 1M octanal solution for 16 hours at 4° C. […]
This novel assay allows thus an efficient solubilization of odorant and greatly improves the efficacy of the molecule. […] Such disproportion has never been detected in a conventional assay. […]

[3] = molecular target: T1, mOR-I7; experiment: Single cell calcium imaging (Fura2) on HEK 293T overexpressing mOR-I7, with or without mucus in buffer; settings: 500 μM octanal
Protocol: FIG. 2: Bovine olfactory mucus enhances hORL-424 activation by citronellal. (A and B) Calcium measurement was performed after activation of hORL-424 with citronellal in the presence of different amount of bovine olfactory mucus. 0 to 10 μl of mucus (0 to 10 μg of total protein) have been added to assay buffer. Calcium flux has been followed on FDSS (Hamamatsu Photonics K.K. plate reader, Japan) using Fluo4 as fluorescent dye. Histograms represent fluorescent signal observed in the presence or in the absence of 10 μl of bovine olfactory mucus. (C) Concentration response curve of HEK 293T overexpressing hORL-424 treated with citronellal. Gray boxes represent values obtained in the presence of bovine olfactory mucus. Calcium flux measurements have been performed on FDSS (Hamamatsu Photonics K.K. plate reader, Japan). (D and E) Traces obtained during single cell calcium imaging after addition of 500 μM octanal on HEK 293T overexpressing mOR-I7 in the absence (D) or in the presence of 10 μl of bovine olfactory mucus (E). Fura2 was used as fluorescent dye. Results are expressed as F340/F380 ratiometric measurement.
This bovine olfactory mucus property was also observed on a different OR in other assay format. FIGS. 2 D and E show traces obtained from single cell calcium imaging performed on HEK 293T overexpressing mOR-I7 and activated by octanal. In this assay, Fura2 was used as calcium tracer.

CCCCCCCC=O [octanal]
cell response on wt cells ([1]; bovine olfactory mucus incubated with octanal): no cell response | fluorescence in HEK 293T wt ([1]; fraction 4 or BSA solution (5×10^−6 M) incubated with 1M octanal): no fluorescence appeared | activation of cells overexpressing mOR-I7 (single cell fluorescence kinetics) [2]: activated | mOR-I7 activation (calcium flux) ([3]; absence of mucus): faint activation | mOR-I7 activation (calcium flux) ([3]; presence of 10 μl bovine olfactory mucus, ATP positive control): calcium flux similar to the one observed after addition of ATP
